These results are taken from US9193731B2, “Antimicrobial compounds and methods of making and using the same” (Melinta Therapeutics, Inc., priority 2009, dated 2015).

The assay deals with Escherichia coli strain ATCC25922. Description: standard microdilution assay to determine minimum inhibitory concentrations (MICs). The assay is classed as cell-based. Particulars: for E. coli ATCC25922 MIC: Escherichia coli strain ATCC25922, microdilution; for MIC: Escherichia coli, ATCC25922, Escherichia coli strain ATCC25922, microdilution, read-out: E. coli ATCC25922 MIC. The method in brief:
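Broth microdilution MIC against E. coli ATCC25922, following CLSI protocols, typically in a 100 microliter final volume. Results reported as +/− relative to a 16 micrograms/ml cutoff.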
Background: In broth dilution the organism is exposed to a series of concentrations in liquid medium.

Molecules are shown by their SMILES. Some results are limits rather than exact numbers.

Turning to `N=C(N)NCCCNCc1ccc(-n2cc3cc(-c4cc(C(=O)N5CCS(=O)(=O)CC5)cc(N5CCNCC5)c4)[nH]c3nc2=O)cc1` [Compound 875], the “E. coli ATCC25922 MIC” value is given as “+ (a “+” indicates that the compound has an MIC value of 16 micrograms/ml or less)”.
As for `NCc1ccc(-n2cc3cc(-c4cccc(OCCOc5ccc(Cl)cc5)c4)[nH]c3nc2=O)cc1` [Compound 1127], the MIC is greater than 16 µg/mL.
`N=C(N)NCCCNCc1ccc(-n2cc3cc(-c4cc(CCCCN)cc(OC(F)F)c4)[nH]c3nc2=O)cc1` [Compound 2074a]: the “E. coli ATCC25922 MIC” value is on record as “+ (a “+” indicates that the compound has an MIC value of 16 micrograms/ml or less)”.
The same measure, in the same setting: to `N=C(N)NCCCNCc1ccc(-n2cc3cc(C4CCN(CC5CNC(=O)O5)C4)[nH]c3nc2=O)cc1` (centres unmarked) [Compound 1457] belongs “− (a “−” indicates that the compound has an MIC value greater than 16 micrograms/ml)”; to `N=C(N)NCCCNCc1ccc(-n2cc3cc(-c4cc(C(=O)Nc5cc(F)cc(F)c5)cc(N5CCNCC5)c4)[nH]c3nc2=O)cc1` [Compound 978], “+ (a “+” indicates that the compound has an MIC value of 16 micrograms/ml or less)”.
Consider `N=C(N)NCCCNCc1ccc(-n2cc3cc(CSc4n[nH]c(N)n4)[nH]c3nc2=O)cc1` [Compound 636], for which the minimal inhibitory concentration (MIC) was greater than 16 µg/mL.
On the same count and under the same terms, to `NCCCCN1CCC(n2cc3c(nc2=O)[nH]c2ccccc23)C1` (centres unmarked) [Compound 542] belongs greater than 16 µg/mL; to `NCCCNCc1ccc(-n2cc3cc(-c4cccc(NCC(=O)N5CCNCC5)c4)[nH]c3nc2=O)cc1` [Compound 644], less than 16 µg/mL.
Same read-out and setting: with `NCCCNCc1ccc(-n2cc3cc[nH]c3nc2=O)cc1` [Compound 498] the figure was greater than 16 µg/mL.
Regarding `CN(Cc1ccccc1)Cc1cc2cn(-c3ccc(CNCCCN)cc3)c(=O)nc2[nH]1` [Compound 905], the MIC was greater than 16 µg/mL.
On to `CC(CN)CN1CCC(c2cc3cn(-c4ccc(CNCCCNC(=N)N)cc4)c(=O)nc3[nH]2)C1` (centres unmarked) [Compound 2038a], for which the “E. coli ATCC25922 MIC” value was “+ (a “+” indicates that the compound has an MIC value of 16 micrograms/ml or less)”.
Consider `NCc1ccc(-n2cc3cc(-c4cccc(S(=O)(=O)N(CCc5cccc([N+](=O)[O-])c5)C5CCNCC5)c4)[nH]c3nc2=O)cc1` [Compound 1184], for which the MIC was greater than 16 µg/mL.
Still for that read-out and setting: with `NCCCNCc1ccc(-n2cc3cc(-c4cc(F)c(F)cc4F)[nH]c3nc2=O)cc1` [Compound 310] the figure was greater than 16 µg/mL.
The same measure, in the same setting: with `N=C(N)NCCCNCc1ccc(-n2cc3cc(CCN[C@@H]4CCCNC4)[nH]c3nc2=O)cc1` [Compound 815] the figure was less than 16 µg/mL; with `NCCCN(CCCN)Cc1ccc(-n2cc3cc(-c4ccc(C(=O)N(Cc5cc(F)cc(F)c5)C5CCNCC5)cc4)[nH]c3nc2=O)cc1` [Compound 225], less than 16 µg/mL.
As to `N=C(N)NCCCNCc1ccc(-n2cc3cc(-c4ccc(S(=O)(=O)CCN)cc4)[nH]c3nc2=O)cc1` [Compound 1130], the “E. coli ATCC25922 MIC” value is “+ (a “+” indicates that the compound has an MIC value of 16 micrograms/ml or less)”.
The same measure, in the same setting: to `CCn1cc(CCCN(C2CCNCC2)S(=O)(=O)c2ccc(-c3cc4cn(-c5ccc(CNCCCNC(=N)N)cc5)c(=O)nc4[nH]3)cc2)cn1` [Compound 837] belongs “+ (a “+” indicates that the compound has an MIC value of 16 micrograms/ml or less)”.
As for `NCCCNCc1ccc(-c2cn3cc(-c4ccc(C(=O)NC5CCNCC5)cc4)[nH]c3nc2=O)cc1` [Compound 648], the MIC is less than 16 µg/mL.
As to `N=C(N)NCCCNCc1ccc(-n2cc3cc(-c4cccc(S(=O)(=O)N(CCC(N)=O)C5CCNCC5)c4)[nH]c3nc2=O)cc1` [Compound 1259], the “E. coli ATCC25922 MIC” value was “+ (a “+” indicates that the compound has an MIC value of 16 micrograms/ml or less)”.
In the case of `N=C(N)NCCCNC(=O)c1ccc(-n2cc3cc(-c4ccc(S(=O)(=O)N(CCCC5CCCC5)C5CCNCC5)cc4)[nH]c3nc2=O)cc1` [Compound 1011], the “E. coli ATCC25922 MIC” value was “+ (a “+” indicates that the compound has an MIC value of 16 micrograms/ml or less)”.
Same read-out and setting: with `COc1cc(-n2cc3cc(-c4cccc(OCC(C)(C)CN)c4)[nH]c3nc2=O)ccc1CNCCCNC(=N)N` [Compound 1328] the entry was “+ (a “+” indicates that the compound has an MIC value of 16 micrograms/ml or less)”.
Same read-out and setting: with `N=C(N)NCCCNC(=O)c1ccc(-n2cc3cc(CCNC4CNC4)[nH]c3nc2=O)cc1` [Compound 1408] the entry was “− (a “−” indicates that the compound has an MIC value greater than 16 micrograms/ml)”.
Take `NCCCOCc1ccc(-c2cn3cc(-c4ccc(Br)cc4)[nH]c3nc2=O)cc1` [Compound 902]: the minimal inhibitory concentration (MIC) is greater than 16 µg/mL.
Regarding `N=C(N)NCCCNC(=O)c1ccc(-n2cc3cc(-c4cccc(OCCCN)c4)[nH]c3nc2=O)cc1` [Compound 1255], the MIC is less than 16 µg/mL.
Still for that read-out and setting: with `N=C1NCCCN1CCCCCn1cc2cc(-c3ccc(S(=O)(=O)NC4CCNCC4)cc3)[nH]c2nc1=O` [Compound 925] the figure was greater than 16 µg/mL; with `NCCCNCc1ccc(-n2cc3cc(-c4ccccc4OC(F)(F)F)[nH]c3nc2=O)cc1` [Compound 309], greater than 16 µg/mL; with `N=C(N)NCCCNC(=O)c1ccc(-n2cc3cc(C4CCCNC4)[nH]c3nc2=O)cc1` (centres unmarked) [Compound 1257], greater than 16 µg/mL.
Still for that read-out and setting: with `Cc1ccn(CCCN(C2CCNCC2)S(=O)(=O)c2cccc(-c3cc4cn(-c5ccc(C(N)=O)cc5)c(=O)nc4[nH]3)c2)n1` [Compound 1126] the figure was greater than 16 µg/mL; with `N=C(N)NCCCNCc1ccc(-n2cc3cc(-c4ccc(S(=O)(=O)N(C5CCNCC5)C5CCOCC5)cc4)[nH]c3nc2=O)cc1` [Compound 727], less than 16 µg/mL.
Take `COc1ccc(NCCCS(=O)(=O)c2ccc(-c3cc4cn(-c5ccc(C(=O)NCCCNC(=N)N)cc5)c(=O)nc4[nH]3)cc2)cc1` [Compound 1260]: the “E. coli ATCC25922 MIC” value is “− (a “−” indicates that the compound has an MIC value greater than 16 micrograms/ml)”.
Turning to `NCc1ccc(-n2cc3cc(-c4ccc(S(=O)(=O)N(CCCc5ccc(F)cc5)C5CCNCC5)cc4)[nH]c3nc2=O)cc1` [Compound 1053], the minimal inhibitory concentration (MIC) was greater than 16 µg/mL.
Still for that read-out and setting: to `NCCCNCc1ccc(-n2cc3cc(-c4cc(F)c(F)c(F)c4)[nH]c3nc2=O)cc1` [Compound 306] belongs greater than 16 µg/mL.
Regarding `N=C(N)NCCCNCc1ccc(-n2cc3cc(CCS(=O)(=O)N(CC4CCOCC4)C4CCNCC4)[nH]c3nc2=O)cc1` [Compound 930], the “E. coli ATCC25922 MIC” value is recorded as “+ (a “+” indicates that the compound has an MIC value of 16 micrograms/ml or less)”.
On to `NCCCOc1cccc(-c2cc3cn(-c4ccc(CNCCCN=C(N)N)cc4)c(=O)nc3[nH]2)c1` [Compound 1179], for which the “E. coli ATCC25922 MIC” value is given as “+ (a “+” indicates that the compound has an MIC value of 16 micrograms/ml or less)”.
Regarding `NCc1ccc(-n2cc3cc(-c4cccc(S(=O)(=O)N(CCc5ccc(F)cc5)C5CCNCC5)c4)[nH]c3nc2=O)cc1` [Compound 1160], the MIC was greater than 16 µg/mL.
The same measure, in the same setting: to `N=C(N)NCCCNCc1ccc(-n2cc3cc(C4CCCN(CCCF)C4)[nH]c3nc2=O)cc1` (centres unmarked) [Compound 2017a] belongs less than 16 µg/mL.
Turning to `CC(N)CCOc1cccc(-c2cc3cn(-c4ccc(CNCCCNC(=N)N)cc4)c(=O)nc3[nH]2)c1` (centres unmarked) [Compound 1440], the “E. coli ATCC25922 MIC” value is listed as “+ (a “+” indicates that the compound has an MIC value of 16 micrograms/ml or less)”.
For the compound `CS(=O)(=O)NCc1cc2cn(-c3ccc(CNCCCNC(=N)N)cc3)c(=O)nc2[nH]1` [Compound 1153], the MIC is greater than 16 µg/mL.

Usually MIC stands for the lowest concentration that inhibits growth of the organism.
